One molecule from paper PMC5218480 (PLoS ONE, 2017) can be followed below.

The experiment concerns MV-4-11 cells. As to the kind of experiment: Gene expression microarray analysis (Affymetrix PrimeView) and GSEA. It counts as cell-based, human. The conditions noted are these: MV-4-11 cells, 48 hours. Also on record: RFU PODN (11730768_x_at) / Fold change /veh PODN (11730768_x_at) / RFU LINC00158 (11744669_a_at) / Fold change /veh LINC00158 (11744669_a_at) / RFU DUSP10 (11751237_a_at) / Fold change /veh DUSP10 (11751237_a_at) / RFU ID3 (11757404_x_at) / Fold change /veh ID3 (11757404_x_at) / RFU PLEKHG5 (11737974_s_at) / Fold change /veh PLEKHG5 (11737974_s_at) / RFU LRRC4B (11730491_at) / Fold change /veh LRRC4B (11730491_at) / RFU GIMAP4 (11747438_a_at) / Fold change /veh GIMAP4 (11747438_a_at) / RFU KRT8 (11758183_x_at) / Fold change /veh KRT8 (11758183_x_at) / RFU CNN1 (11734310_a_at) / Fold change /veh CNN1 (11734310_a_at) / RFU VPS37D (11726825_at) / Fold change /veh VPS37D (11726825_at) / RFU C10orf10 (11716522_x_at) / Fold change /veh C10orf10 (11716522_x_at) / RFU KIR2DL2 /// KIR2DL4 /// KIR2DL5A /// KIR2DL5B /// KIR2DS1 /// KIR2DS2 /// KIR2DS3 /// KIR2DS4 /// KIR3DL3 /// KIR3DL3 /// KIR3DS1 (11738374_at) / Fold change /veh KIR2DL2 /// KIR2DL4 /// KIR2DL5A /// KIR2DL5B /// KIR2DS1 /// KIR2DS2 /// KIR2DS3 /// KIR2DS4 /// KIR3DL3 /// KIR3DL3 /// KIR3DS1 (11738374_at) / RFU C1QL1 (11718748_at) / Fold change /veh C1QL1 (11718748_at) / RFU TMPRSS4 (11747572_a_at) / Fold change /veh TMPRSS4 (11747572_a_at) / RFU HAMP (11756126_x_at) / Fold change /veh HAMP (11756126_x_at) / RFU RNFT2 (11725882_a_at) / Fold change /veh RNFT2 (11725882_a_at) / RFU NR4A2 (11747474_a_at) / Fold change /veh NR4A2 (11747474_a_at) / RFU ABCC12 (11746883_a_at) / Fold change /veh ABCC12 (11746883_a_at) / RFU TMEM136 (11760407_x_at) / Fold change /veh TMEM136 (11760407_x_at) / RFU CLDN22 /// WWC2 (11732394_at) / Fold change /veh CLDN22 /// WWC2 (11732394_at) / RFU HLA-DPB1 (11760878_x_at) / Fold change /veh HLA-DPB1 (11760878_x_at) / RFU SPINT1 (11716480_a_at) / Fold change /veh SPINT1 (11716480_a_at) / RFU GAP43 (11754022_s_at) / Fold change /veh GAP43 (11754022_s_at) / RFU A4GNT (11735810_at) / Fold change /veh A4GNT (11735810_at) / RFU PRB3 (11715151_x_at) / Fold change /veh PRB3 (11715151_x_at) / RFU TUBB4B (11761932_at) / Fold change /veh TUBB4B (11761932_at) / RFU CAPN14 (11732068_a_at) / Fold change /veh CAPN14 (11732068_a_at) / RFU TMCC2 (11721928_a_at) / Fold change /veh TMCC2 (11721928_a_at) / RFU IRGQ (11745062_a_at) / Fold change /veh IRGQ (11745062_a_at) / RFU FAM174B (11720279_a_at) / Fold change /veh FAM174B (11720279_a_at) / RFU TMPRSS4 (11748680_a_at) / Fold change /veh TMPRSS4 (11748680_a_at) / RFU FAM212B (11763350_a_at) / Fold change /veh FAM212B (11763350_a_at) / RFU PLEKHG5 (11743358_a_at) / Fold change /veh PLEKHG5 (11743358_a_at) / RFU ZSCAN30 (11745921_a_at) / Fold change /veh ZSCAN30 (11745921_a_at) / RFU CMKLR1 (11741424_a_at) / Fold change /veh CMKLR1 (11741424_a_at) / RFU LOC101060620 /// MAPK8IP1 (11723275_at) / Fold change /veh LOC101060620 /// MAPK8IP1 (11723275_at) / RFU SPTSSB (11747773_x_at) / Fold change /veh SPTSSB (11747773_x_at) / RFU PRSS12 (11739890_at) / Fold change /veh PRSS12 (11739890_at) / RFU BIN1 (11741810_x_at) / Fold change /veh BIN1 (11741810_x_at) / RFU WNT11 (11732464_a_at) / Fold change /veh WNT11 (11732464_a_at) / RFU C10orf10 (11716521_a_at) / Fold change /veh C10orf10 (11716521_a_at) / RFU C5orf56 (11738089_at) / Fold change /veh C5orf56 (11738089_at) / RFU CYB561 (11721691_x_at) / Fold change /veh CYB561 (11721691_x_at) / RFU ANKRD19P (11752326_a_at) / Fold change /veh ANKRD19P (11752326_a_at) / RFU OR2T12 /// OR2T33 /// OR2T8 (11738714_s_at) / Fold change /veh OR2T12 /// OR2T33 /// OR2T8 (11738714_s_at) / RFU VCAN (11748164_a_at) / Fold change /veh VCAN (11748164_a_at) / RFU JSRP1 (11732532_at) / Fold change /veh JSRP1 (11732532_at) / RFU KRTAP10-11 (11738290_x_at) / Fold change /veh KRTAP10-11 (11738290_x_at) / RFU MYO3A (11730013_a_at) / Fold change /veh MYO3A (11730013_a_at) / RFU EBF3 (11725865_a_at) / Fold change /veh EBF3 (11725865_a_at) / RFU CAMK2N1 (11719241_x_at) / Fold change /veh CAMK2N1 (11719241_x_at) / RFU C5orf56 (11738088_a_at) / Fold change /veh C5orf56 (11738088_a_at) / RFU OLFML3 (11715873_a_at) / Fold change /veh OLFML3 (11715873_a_at) / RFU LOC100653217 /// NTM (11731650_a_at) / Fold change /veh LOC100653217 /// NTM (11731650_a_at) / RFU MAPK11 (11762145_a_at) / Fold change /veh MAPK11 (11762145_a_at) / RFU FIZ1 (11724087_x_at) / Fold change /veh FIZ1 (11724087_x_at) / RFU OASL (11726364_x_at) / Fold change /veh OASL (11726364_x_at) / RFU SOX15 (11748057_x_at) / Fold change /veh SOX15 (11748057_x_at) / RFU CD79A (11719716_a_at) / Fold change /veh CD79A (11719716_a_at) / RFU HIST1H1D (11736915_at) / Fold change /veh HIST1H1D (11736915_at) / RFU CASKIN2 (11723855_a_at) / Fold change /veh CASKIN2 (11723855_a_at) / RFU LOC730098 (11760151_x_at) / Fold change /veh LOC730098 (11760151_x_at) / RFU OR4N2 (11742367_at) / Fold change /veh OR4N2 (11742367_at) / RFU PRRT2 (11749266_a_at) / Fold change /veh PRRT2 (11749266_a_at) / RFU SNX32 (11753110_a_at) / Fold change /veh SNX32 (11753110_a_at) / RFU CDHR5 (11726645_a_at) / Fold change /veh CDHR5 (11726645_a_at) / RFU RCAN1 (11760418_a_at) / Fold change /veh RCAN1 (11760418_a_at) / RFU FAM167A (11723789_a_at) / Fold change /veh FAM167A (11723789_a_at) / RFU FAM26E (11764081_at) / Fold change /veh FAM26E (11764081_at) / RFU ISYNA1 (11749810_s_at) / Fold change /veh ISYNA1 (11749810_s_at) / RFU ACY1 (11761880_at) / Fold change /veh ACY1 (11761880_at) / RFU 11764098_at / Fold change /veh 11764098_at / RFU SAMD14 (11745864_x_at) / Fold change /veh SAMD14 (11745864_x_at) / RFU NPB (11741838_a_at) / Fold change /veh NPB (11741838_a_at) / RFU TMPRSS6 (11731388_a_at) / Fold change /veh TMPRSS6 (11731388_a_at) / RFU KRTAP10-2 (11738614_at) / Fold change /veh KRTAP10-2 (11738614_at) / RFU ARHGAP8 /// PRR5-ARHGAP8 (11727945_x_at) / Fold change /veh ARHGAP8 /// PRR5-ARHGAP8 (11727945_x_at) / RFU KRTAP5-7 /// NADSYN1 (11734609_at) / Fold change /veh KRTAP5-7 /// NADSYN1 (11734609_at) / RFU RASL12 (11751679_a_at) / Fold change /veh RASL12 (11751679_a_at) / RFU CDKN2B (11736163_a_at) / Fold change /veh CDKN2B (11736163_a_at) / RFU PRF1 (11729649_at) / Fold change /veh PRF1 (11729649_at) / RFU, ZNF638 /// ZNF638-IT1 / Fold change vs veh, ZNF638 /// ZNF638-IT1 / RFU, PANK3 / Fold change vs veh, PANK3 / RFU, SH3YL1 / Fold change vs veh, SH3YL1 / RFU, ZEB2 / Fold change vs veh, ZEB2 / RFU, NRIP1 / Fold change vs veh, NRIP1 / RFU, PTTG1IP / Fold change vs veh, PTTG1IP / RFU, CAPN2 / Fold change vs veh, CAPN2 / RFU, MED14 / Fold change vs veh, MED14 / RFU, SNORA58 / Fold change vs veh, SNORA58 / RFU, C1orf63 / Fold change vs veh, C1orf63 / RFU, LRRFIP1 / Fold change vs veh, LRRFIP1 / RFU, NDUFAF7 / Fold change vs veh, NDUFAF7 / RFU, SLC12A2 / Fold change vs veh, SLC12A2 / RFU, IBTK / Fold change vs veh, IBTK / RFU, ESF1 / Fold change vs veh, ESF1 / Fold change vs veh, TMEM50B / RFU, TAOK1 / Fold change vs veh, TAOK1 / RFU, ACBD3 / Fold change vs veh, ACBD3 / RFU, TMA16 / Fold change vs veh, TMA16 / RFU, RWDD3 / Fold change vs veh, RWDD3 / RFU, BCAT1 / Fold change vs veh, BCAT1 / RFU, EDEM3 / Fold change vs veh, EDEM3 / RFU, TMEM33 / Fold change vs veh, TMEM33 / RFU, WDR75 / Fold change vs veh, WDR75 / RFU, AHCTF1 / Fold change vs veh, AHCTF1 / RFU, TFRC / Fold change vs veh, TFRC / RFU, ZDHHC17 / Fold change vs veh, ZDHHC17 / RFU, NOM1 / Fold change vs veh, NOM1 / RFU, ARL8B / Fold change vs veh, ARL8B / RFU, ZBTB11 / Fold change vs veh, ZBTB11 / RFU, TAMM41 / Fold change vs veh, TAMM41 / RFU, KIAA1704 /// LOC100996395 / Fold change vs veh, KIAA1704 /// LOC100996395 / RFU, ING1 / Fold change vs veh, ING1 / RFU, TRMT61B / Fold change vs veh, TRMT61B / RFU, FUBP3 / Fold change vs veh, FUBP3 / RFU, TP53 / Fold change vs veh, TP53 / RFU, TNKS2 / Fold change vs veh, TNKS2 / RFU, ZFP14 / Fold change vs veh, ZFP14 / RFU, ACTR2 / Fold change vs veh, ACTR2 / RFU, PPP3R1 / Fold change vs veh, PPP3R1 / RFU, PIK3R1 / Fold change vs veh, PIK3R1 / RFU, HNRNPA1 / Fold change vs veh, HNRNPA1 / RFU, RNF170 / Fold change vs veh, RNF170 / RFU, ZNF28 / Fold change vs veh, ZNF28 / RFU, RNGTT / Fold change vs veh, RNGTT / RFU, OGT / Fold change vs veh, OGT / RFU, BRD1 / Fold change vs veh, BRD1 / RFU, MARS / Fold change vs veh, MARS / RFU, ZNF655 / Fold change vs veh, ZNF655 / RFU, FAHD1 / Fold change vs veh, FAHD1 / RFU, BDP1 / Fold change vs veh, BDP1 / RFU, LRRCC1 / Fold change vs veh, LRRCC1 / RFU, ARID1A / Fold change vs veh, ARID1A / RFU, ZNF146 / Fold change vs veh, ZNF146 / RFU, ZNF330 / Fold change vs veh, ZNF330 / RFU, GPN3 / Fold change vs veh, GPN3 / RFU, C9orf123 / Fold change vs veh, C9orf123 / RFU, N4BP2L2 / Fold change vs veh, N4BP2L2 / RFU, ARFIP1 / Fold change vs veh, ARFIP1 / RFU, FAM179B / Fold change vs veh, FAM179B / RFU, BCL10 / Fold change vs veh, BCL10 / RFU, UHRF1BP1L / Fold change vs veh, UHRF1BP1L / RFU, BET1 / Fold change vs veh, BET1 / RFU, CNOT2 / Fold change vs veh, CNOT2 / RFU, ZNF268 / Fold change vs veh, ZNF268 / Fold change vs veh, ZNF507 / RFU, DGCR2 / Fold change vs veh, DGCR2 / RFU, WDSUB1 / Fold change vs veh, WDSUB1 / Fold change vs veh, HSP90B1 /// MIR3652 / RFU, ADSS / Fold change vs veh, ADSS / RFU, GK / Fold change vs veh, GK / RFU, ZNF148 / Fold change vs veh, ZNF148 / RFU, TAF9 / Fold change vs veh, TAF9 / RFU, SLC1A5 / Fold change vs veh, SLC1A5 / RFU, SLMO2 / Fold change vs veh, SLMO2 / RFU, ABCC4 / Fold change vs veh, ABCC4 / RFU, LOC101060439 /// RAP1B / Fold change vs veh, LOC101060439 /// RAP1B / RFU, RFX7 / Fold change vs veh, RFX7 / RFU, GTPBP10 / Fold change vs veh, GTPBP10 / RFU, CNEP1R1 / Fold change vs veh, CNEP1R1 / RFU, BIVM-ERCC5 /// ERCC5 / Fold change vs veh, BIVM-ERCC5 /// ERCC5 / RFU, ILF3 / Fold change vs veh, ILF3 / RFU 11762660_at / Fold change /veh 11762660_at / RFU VCAN (11757783_s_at) / Fold change /veh VCAN (11757783_s_at) / RFU DDX43 (11728927_at) / Fold change /veh DDX43 (11728927_at) / RFU KRT8 (11758188_x_at) / Fold change /veh KRT8 (11758188_x_at) / RFU NKD1 (11759106_at) / Fold change /veh NKD1 (11759106_at) / RFU SRD5A1 (11742802_a_at) / Fold change /veh SRD5A1 (11742802_a_at) / RFU TPSAB1 /// TPSB2 (11721975_s_at) / Fold change /veh TPSAB1 /// TPSB2 (11721975_s_at) / RFU GSTM3 (11746129_a_at) / Fold change /veh GSTM3 (11746129_a_at) / RFU IL23R (11737362_x_at) / Fold change /veh IL23R (11737362_x_at) / RFU TMEM51 (11727254_a_at) / Fold change /veh TMEM51 (11727254_a_at) / RFU PIWIL2 (11732686_x_at) / Fold change /veh PIWIL2 (11732686_x_at) / RFU ORM1 (11744905_x_at) / Fold change /veh ORM1 (11744905_x_at) / RFU CCDC152 (11743942_at) / Fold change /veh CCDC152 (11743942_at) / RFU ECM1 (11717891_a_at) / Fold change /veh ECM1 (11717891_a_at) / RFU IL23R (11748794_a_at) / Fold change /veh IL23R (11748794_a_at) / RFU TNFAIP8L3 (11732012_x_at) / Fold change /veh TNFAIP8L3 (11732012_x_at) / RFU MBOAT4 (11741988_at) / Fold change /veh MBOAT4 (11741988_at) / RFU 11764193_at / Fold change /veh 11764193_at / RFU TMEM53 (11763286_at) / Fold change /veh TMEM53 (11763286_at) / RFU MAGEB2 (11727129_at) / Fold change /veh MAGEB2 (11727129_at) / RFU TMEM200A (11744735_a_at) / Fold change /veh TMEM200A (11744735_a_at) / RFU CCDC152 (11751479_a_at) / Fold change /veh CCDC152 (11751479_a_at) / RFU FAM211A (11726209_a_at) / Fold change /veh FAM211A (11726209_a_at) / RFU RGS16 (11746705_a_at) / Fold change /veh RGS16 (11746705_a_at) / RFU VCAN (11755009_s_at) / Fold change /veh VCAN (11755009_s_at) / RFU RHOB (11743442_s_at) / Fold change /veh RHOB (11743442_s_at) / RFU RGS16 (11720943_a_at) / Fold change /veh RGS16 (11720943_a_at) / RFU RGS16 (11720944_at) / Fold change /veh RGS16 (11720944_at) / RFU, VPS4B / Fold change vs veh, VPS4B / RFU, CREB1 / Fold change vs veh, CREB1 / RFU, DNAJC13 / Fold change vs veh, DNAJC13 / RFU, GNAQ / Fold change vs veh, GNAQ / RFU, CDK5R1 / Fold change vs veh, CDK5R1 / RFU, ZRANB3 / Fold change vs veh, ZRANB3 / RFU, CUL4A / Fold change vs veh, CUL4A / RFU, CCNY / Fold change vs veh, CCNY / RFU, UFL1 / Fold change vs veh, UFL1 / RFU, COG3 / Fold change vs veh, COG3 / RFU, DIAPH2 / Fold change vs veh, DIAPH2 / RFU, SKA2 / Fold change vs veh, SKA2 / RFU, AFF3 / Fold change vs veh, AFF3 / RFU, LMF1 / Fold change vs veh, LMF1 / RFU, IPO11 / Fold change vs veh, IPO11 / RFU, DFFB / Fold change vs veh, DFFB / RFU, FOXP1 / Fold change vs veh, FOXP1 / RFU, CARD8 / Fold change vs veh, CARD8 / RFU, STRN3 / Fold change vs veh, STRN3 / RFU, ADK / Fold change vs veh, ADK / RFU, RASSF2 / Fold change vs veh, RASSF2 / RFU, WIPF1 / Fold change vs veh, WIPF1 / RFU, LARP1B / Fold change vs veh, LARP1B / RFU, RASA1 / Fold change vs veh, RASA1 / RFU, RB1 / Fold change vs veh, RB1 / RFU, PPFIA1 / Fold change vs veh, PPFIA1 / RFU, MAT2A / Fold change vs veh, MAT2A / RFU, CCT5 / Fold change vs veh, CCT5 / RFU, WDR92 / Fold change vs veh, WDR92 / RFU, CUX1 / Fold change vs veh, CUX1 / RFU, TTC7A / Fold change vs veh, TTC7A / RFU, TMEM135 / Fold change vs veh, TMEM135 / RFU, DEPTOR / Fold change vs veh, DEPTOR / RFU, CPM / Fold change vs veh, CPM / RFU, DNAJB6 / Fold change vs veh, DNAJB6 / RFU, CACNA2D3 / Fold change vs veh, CACNA2D3 / RFU, DTX4 / Fold change vs veh, DTX4 / RFU, TFCP2 / Fold change vs veh, TFCP2 / RFU, GMCL1 /// GMCL1P1 / Fold change vs veh, GMCL1 /// GMCL1P1 / RFU, AEBP2 / Fold change vs veh, AEBP2 / RFU, SNHG1 /// SNORD22 /// SNORD25 /// SNORD26 /// SNORD27 /// SNORD28 /// SNORD29 /// SNORD31 / Fold change vs veh, SNHG1 /// SNORD22 /// SNORD25 /// SNORD26 /// SNORD27 /// SNORD28 /// SNORD29 /// SNORD31 / Fold change (Aza/veh), C12orf56 (ProbeSet 11735607_a_at) / Fold change (ACY-1035/veh), C12orf56 (ProbeSet 11735607_a_at) / Fold change (Aza/veh), FGFR1OP (ProbeSet 11751329_s_at) / Fold change (ACY-1035/veh), FGFR1OP (ProbeSet 11751329_s_at) / Fold change (Aza/veh), VPS36 (ProbeSet 11739960_a_at) / Fold change (ACY-1035/veh), VPS36 (ProbeSet 11739960_a_at) / RFU SYPL1 (11715823_x_at) / Fold change /veh SYPL1 (11715823_x_at) / RFU IGFBP7 (11715501_s_at) / Fold change /veh IGFBP7 (11715501_s_at) / RFU REEP3 (11722064_at) / Fold change /veh REEP3 (11722064_at) / RFU IGLL1 (11728026_x_at) / Fold change /veh IGLL1 (11728026_x_at): dose or concentration left out as unconfirmed.

With `Nc1ncn([C@@H]2O[C@H](CO)[C@@H](O)[C@H]2O)c(=O)n1` [azacitidine], the “RFU LOC101060620 /// MAPK8IP1 (11723275_at)” value was found to be 10.14 RFU.
